The test system of the first test is m-IMCD3 cells. The test can be described thus: Inhibition of PGE2-stimulated in vitro cyst formation in 3D culture of m-IMCD3 cells. The test is classed as cell-based, mouse. The conditions noted are these: Mus musculus, mIMCD3, 144 h; 10 μM test compound; mean cyst area (%) compared to 100% for (DMSO + PGE2) and 0% for DMSO control; 100 nM PGE2; 6 days; read-out: % Cyst area after incubation with 10 μM test compound. How it is done: HEK 293 and MDCK cells (Public Health England, Cell Culture Collections) were maintained in Dulbecco's Modified Eagle's Medium (DMEM) supplemented with 10% (v/v) fetal bovine serum (FBS) (Seralab), 2 mM L-glutamine and 100 U/ml penicillin streptomycin cocktail (ThermoFisher); termed complete media. Clonal HEK 293 cell lines were maintained in complete media supplemented with 0.6 mg/mL G418 (Enzo Life Sciences). Mouse inner medullary collecting duct (m-IMCD3) cells [American Type Culture Collection (ATCC)] were maintained in media consisting of DMEM/Hams F-12 50/50 Mix (DMEM F12; Corning) supplemented with penicillin streptomycin cocktail (100 U/ml) and FBS (10% v/v) (DMEM F12-10% FBS).
The mouse Inner Medullary Collecting Duct cell line (m-IMCD3) spontaneously forms cystic spheroids in 3D culture with a Type 1 collagen/Matrigel extracellular matrix. This process can be stimulated with agents which raise intracellular cAMP, such as PGE2, and is used as an in vitro model for the formation of cystic structures in the kidneys of patients with ADPKD.
Rat Collagen I (Fisher Scientific) is prepared on ice by neutralising with 1M NaOH and diluting with a 2×volume of DMEM/F12+10% FBS for coating plate (coating mix) and a 2.2 volume of DMEM/F12+10% FBS for cell plating (plating mix). This is mixed 1:1.1 with ice cold Matrigel (Corning) for coating plates (coating mix), and 1:0.95 with Matrigel for cell plating (plating mix).
The assay is conducted in the wells of a 96-well plate culture dish using a total volume of 130 μl of collagen/Matrigel/DMEM F12-10% FBS suspension in growth media for each matrix plug per individual well. Initially, 30 μl of collagen/Matrigel/DMEM F12-10% FBS (coating mix) is added into the well of a 96 well plate and the collagen is set to a gel by incubating at 37° C. for at least 15 minutes. A second layer of 100 μl collagen/Matrigel suspension (plating mix) containing m-IMCD3 cells (2.75×10^6 m-IMCD3 cells per 96-well plate) is layered over the coating mix and the collagen/Matrigel/cell mix again set to a gel by incubating at 37° C. Cell cultures are maintained at 37° C. in an atmosphere of 5% CO2, 95% air.
Between 18 and 24h after plating, test compound(s) as DMSO stock solutions [0.1% (v/v) final DMSO concentration] and PGE2 (100 nM final concentration) in DMEM F12-10% FBS are added in quadruplicate wells per condition. Media, togetherwith the test compound and PGE2 are replenished after 2 or 3 days. After 6 days of culture z stack images of the wells are captured using the Nikon Eclipse Ti2-E microscope. Nikon General Analysis software is used to measure the following parameters in each well: the mean cyst area, the number of cysts, and the total cyst area.
PDE4 long form activators inhibited in vitro cyst formation in m-IMCD3 cells. Data are shown in FIG. 2 and Table 5 as mean cyst area (%), compared to 100% for (DMSO+PGE2) and 0% for DMSO control.
Turning to `O=C(NC1CCCC1)c1ccc2nc(N3CCCC4NCCC43)sc2c1` (stereo not shown) [Example 258, N-cyclopentyl-2-(octahydro-4H-pyrrolo[3,2-b]pyridin-4-yl)benzo[d]thiazole-6-carboxamide], the activity at 10 µM is 11%. As to `O=C(NC1CCC1)c1cc(Cl)c2nc(N3CCNCC3)sc2c1` [Example 234, 4-chloro-N-cyclobutyl-2-(piperazin-1-yl)benzo[d]thiazole-6-carboxamide], the activity at 10 µM was 3%.

As to `COc1ccc2c(c1)CC[C@@H]2NC(=O)c1ccc2nc(N3CCNCC3)sc2c1` [Example 108, (S)-N-(5-methoxy-2,3-dihydro-1H-inden-1-yl)-2-(piperazin-1-yl)benzo[d]thiazole-6-carboxamide], the activity at 10 µM worked out at 22%. The same measure, in the same setting: the same measure for `Cc1cc(C(=O)NC2CCCC2)cc2sc(N3CCNCC3)nc12` [Example 206, N-cyclopentyl-4-methyl-2-(piperazin-1-yl)benzo[d]thiazole-6-carboxamide]: 14%.

Turning to `O=C(N[C@H]1CCc2ccccc21)c1ccc2nc(C3CCNCC3)sc2c1` [Example 127, (S)-N-(2,3-dihydro-1H-inden-1-yl)-2-(piperidin-4-yl)benzo[d]thiazole-6-carboxamide], the activity at 10 µM amounted to 13%. Still for that read-out and setting: the same measure for `O=C(N[C@H]1CCOc2ccccc21)c1ccc2nc([C@H]3CCCNC3)sc2c1` (single isomer, unassigned) [Example 176]: 1%; for `CCN1CCC(c2nc3cc(C)c(C(=O)N[C@H]4CCOc5ccccc54)cc3s2)CC1` [Example 191, (S)-N-(chroman-4-yl)-2-(1-ethylpiperidin-4-yl)-5-methylbenzo[d]thiazole-6-carboxamide]: 3%; for `O=C(N[C@H]1CCOc2ccccc21)c1ccc2nc(N3CC4CCC(C3)N4)sc2c1` [Example 121, 2-(3,8-diazabicyclo[3.2.1]octan-3-yl)-N-((S)-chroman-4-yl)benzo[d]thiazole-6-carboxamide]: 15%.

In the case of `CCN1CCN(c2nc3ccc(C(=O)NC4CCCC4)cc3s2)CC1` [Example 81, N-cyclopentyl-2-(4-ethylpiperazin-1-yl)benzo[d]thiazole-6-carboxamide], the activity at 10 µM stood at 7%.

Take `COc1ccc2c(c1)[C@H](NC(=O)c1ccc3nc(N4CCNCC4)sc3c1)CC2` [Example 107, (R)-N-(6-methoxy-2,3-dihydro-1H-inden-1-yl)-2-(piperazin-1-yl)benzo[d]thiazole-6-carboxamide]: the activity at 10 µM came to 17%. Same read-out and setting: the same measure for `O=C(N[C@H]1CCOc2c(F)cccc21)c1ccc2nc(N3CCNCC3)sc2c1` [Example 85, (S)-N-(8-fluorochroman-4-yl)-2-(piperazin-1-yl)benzo[d]thiazole-6-carboxamide]: -12%; for `COC1CCN(c2nc3ccc(C(=O)N[C@H]4CCOc5ccccc54)cc3s2)CC1` [Example 70, (S)-N-(chroman-4-yl)-2-(4-methoxypiperidin-1-yl)benzo[d]thiazole-6-carboxamide]: -18%; for `COc1cccc(CNC(=O)c2ccc3nc(-c4cncc(C)c4)sc3c2)c1` [Example 36, N-(3-methoxybenzyl)-2-(5-methylpyridin-3-yl)benzo[d]thiazole-6-carboxamide]: 30%. On the same count and under the same terms, the same measure for `CN(C(=O)c1ccc2nc(C3CCNCC3)sc2c1)C1CCCC1` [Example 271, N-cyclopentyl-N-methyl-2-(piperidin-4-yl)benzo[d]thiazole-6-carboxamide]: 27%; for `O=C(N[C@@H]1c2ccccc2C[C@H]1O)c1ccc2nc(C3CCNCC3)sc2c1` [Example 128, N-((1R,2R)-2-hydroxy-2,3-dihydro-1H-inden-1-yl)-2-(piperidin-4-yl)benzo[d]thiazole-6-carboxamide]: 3%; for `CCN1CCN(c2nc3c(C)cc(C(=O)NC4CCOCC4)cc3s2)CC1` [Example 210, 2-(4-ethylpiperazin-1-yl)-4-methyl-N-(tetrahydro-2H-pyran-4-yl)benzo[d]thiazole-6-carboxamide]: 3%.

Take `O=C(N[C@H]1CCOc2ccccc21)c1ccc2nc(N3C[C@H]4C[C@@H]3CN4)sc2c1` [Example 78, 2-((1R,4R)-2,5-diazabicyclo[2.2.1]heptan-2-yl)-N-((S)-chroman-4-yl)benzo[d]thiazole-6-carboxamide]: the activity at 10 µM is 24%.

With `Cc1cncc(-c2nc3ccc(C(=O)NCc4cccc(Cl)c4)cc3s2)c1` [Example 34, N-[(3-chlorophenyl)methyl]-2-(5-methylpyridin-3-yl)benzo[d]thiazole-6-carboxamide], the activity at 10 µM was determined as 26%. For the compound `Cc1c(C(=O)N[C@H]2CCOc3ccccc32)ccc2nc(N3CCNCC3)sc12` [Example 219, (S)-N-(chroman-4-yl)-7-methyl-2-(piperazin-1-yl)benzo[d]thiazole-6-carboxamide], the activity at 10 µM was 2%. On to `CN1CCC(c2nc3ccc(S(=O)(=O)NC4CCCC4)cc3s2)CC1` [Example 288, N-cyclopentyl-2-(1-methylpiperidin-4-yl)benzo[d]thiazole-6-sulfonamide], for which the activity at 10 µM worked out at 11%.

`O=C(N[C@@H]1CCc2c(F)cccc21)c1ccc2nc(N3CCNCC3)sc2c1` [Example 104, (R)-N-(4-fluoro-2,3-dihydro-1H-inden-1-yl)-2-(piperazin-1-yl)benzo[d]thiazole-6-carboxamide]: the activity at 10 µM was 30%. For the compound `CC(C)c1ccc(-c2nc3ccc(C(=O)N[C@H]4CCOc5ccccc54)cc3s2)cn1` [Example 28, (S)-N-(chroman-4-yl)-2-(6-isopropylpyridin-3-yl)benzo[d]thiazole-6-carboxamide], the activity at 10 µM is 26%.

Regarding `O=C(NC1CCC(F)(F)CC1)c1ccc2nc(N3C4CCC3CN(CCCO)C4)sc2c1` [Example 243, N-(4,4-difluorocyclohexyl)-2-(3-(3-hydroxypropyl)-3,8-diazabicyclo[3.2.1]octan-8-yl)benzo[d]thiazole-6-carboxamide], the activity at 10 µM turned out to be 6%.

`CC(C)N1CCN(c2nc3ccc(C(=O)N[C@H]4CCOc5ccccc54)cc3s2)CC1` [Example 74, (S)-N-(chroman-4-yl)-2-(4-isopropylpiperazin-1-yl)benzo[d]thiazole-6-carboxamide]: the activity at 10 µM turned out to be 8%.

On to `O=C(NC1CCOCC1)c1ccc2nc(C3CCNCC3)sc2c1` [Example 138, 2-(piperidin-4-yl)-N-(tetrahydro-2H-pyran-4-yl)benzo[d]thiazole-6-carboxamide], for which the activity at 10 µM was 20%.

Take `COCCOCCN1CCC(c2nc3ccc(C(=O)N[C@H]4CCOc5ccccc54)cc3s2)CC1` [Example 175, (S)-N-(chroman-4-yl)-2-(1-(2-(2-methoxyethoxy)ethyl)piperidin-4-yl)benzo[d]thiazole-6-carboxamide]: the activity at 10 µM is -14%. `CCN1CCN(c2nc3ccc(C(=O)N[C@@H]4CCOc5ccccc54)cc3s2)CC1` [Example 73, (R)-N-(chroman-4-yl)-2-(4-ethylpiperazin-1-yl)benzo[d]thiazole-6-carboxamide]: the activity at 10 µM is 26%. In the case of `O=C(NC1CCCC1)c1ccc2nc(C3CCN(CCO)CC3)sc2c1` [Example 171, N-cyclopentyl-2-(1-(2-hydroxyethyl)piperidin-4-yl)benzo[d]thiazole-6-carboxamide], the activity at 10 µM came to 13%. Still for that read-out and setting: to `O=C(NC1CCCC1)c1cc(Br)c2nc(N3C4CCC3CNC4)sc2c1` [Example 237, 2-(3,8-diazabicyclo[3.2.1]octan-8-yl)-4-bromo-N-cyclopentylbenzo[d]thiazole-6-carboxamide] belongs 11%. Consider `CCN1CCC(c2nc3ccc(C(=O)NCc4ccncc4)cc3s2)CC1` [Example 275, 2-(1-ethylpiperidin-4-yl)-N-(pyridin-4-ylmethyl)benzo[d]thiazole-6-carboxamide], for which the activity at 10 µM is -2%.

The test is the same for the next values; noted with them: result in words.
Turning to `CCN1CCC(c2nc3cc(C)c(C(=O)N[C@H]4CCOc5ccccc54)cc3s2)CC1` [Example 191, (S)-N-(chroman-4-yl)-2-(1-ethylpiperidin-4-yl)-5-methylbenzo[d]thiazole-6-carboxamide], the “Inhibition of PGE2-stimulated cyst formation in 3D culture of m-IMCD3 cells (FIG. 2)” value is on record as “concentration-dependent inhibition”.
